In patent publication US20140242099A1 (Synta Pharmaceuticals Corp., priority 2011, published 2014):

What was measured:
[1] = molecular target: T1, ICRAC current (CRAC ion channels), RBL-2H3 cells (Rattus norvegicus, UniProt Q5M848); assay: Automated patch clamp (Qpatch) inhibition of ICRAC current in RBL-2H3 cells; assay type: cell-based; conditions: compound at 100 nM, method calculates % ICRAC inhibition
T1 construct: endogenous in cells; host or cells: RBL-2H3 (rat basophilic leukemia cells)
Description: Automated patch clamp experiments are conducted with the QPatch 16 (Sophion Bioscience, Ballerup, Denmark) at room temperature (21-25° C.). Immediately following the establishment of giga-seal whole-cell configuration, the cells membrane potential is clamped at 0 mV. Voltage ramps of 50 ms duration spanning the voltage range of −100 to +100 mV are then stimulated at a rate of 0.33 Hz. Currents are filtered at 2.9 kHz and digitized at 200 μs intervals. Capacitive currents and series resistance are determined and corrected before each voltage ramp using the automatic capacitance compensation.
RBL-2H3 are grown in DMEM media supplemented with 10% fetal bovine serum, penicillin 100 U/ml and streptomycin […] in an atmosphere of 95% air/5% CO2. Cells are grown to confluence in 175 cm^2 tissue culture flask. On the experimental day, cells harvested with 0.25% trypsin/0.02% EDTA and resuspended in extracellular solution at density of 5×10^6 cells/ml.
The intracellular solution contains Cs-Glutamate 90 mM; NaCl 8 mM; MgCl2 3 mM; CsCl 20 mM; CsBAPTA 20 mM; HEPES 10 mM; InsP3 0.02 mM; pH=7.2 adjusted with CsOH.
The extracellular solution contains NMDGCl 120 mM; KCl 5.4 mM; CsCl 10 mM; CaCl2 10 mM; MgCl2 1 mM; HEPES 10 mM; Glucose 5.5 mM; at pH=7.4 adjusted with HCl.
ICRAC currents are measured using 50 msec voltage ramps between −100 mV to +100 mV. The voltage ramps are stimulated every 3 seconds for at least 570 seconds. The maximum ICRAC current is allowed to develop for at least 135 seconds. Compounds diluted in extracellular solutions are then applied twice, 30 seconds apart. After incubating the cells with compound for 435 seconds, a reference solution is applied at the end of the experiment. The reference solution is a Ca^2+ free extracellular solution.
Off-line analysis with the Qpatch software is used to plot the current value at −80 mV for each ramp trace against time. The resulting current versus time data is then exported into a Microsoft Excel spreadsheet. The ICRAC membrane currents are separated from the cells basal background currents by either subtracting out the average membrane current values during the first 1-3 traces, or the average membrane current values obtained with the reference solution at the end of the experiment. The % ICRAC inhibition in each cell is calculated by comparing the amount of current just prior to the first compound addition to the amount of current after the cells has been perfused with the compound for at least 400 seconds.

[2] = system: IL-2 production in Jurkat T-cells; assay: Inhibition of IL-2 production, Jurkat/PHA/1% FBS, ELISA; assay type: cell-based; conditions: Homo sapiens, read-out: IL-2 inhibition Jurkat/PHA/1% FBS IC50 (nM), PHA 2.5 μg/mL, 20 hours
Description: JurkaT-cells were placed in a 96 well plate (0.5 million cells per well in 1% FBS medium), and then a test compound of this invention was added at different concentrations. After 10 minutes, the cells were activated with PHA (final concentration 2.5 μg/mL) and incubated for 20 hours at 37° C. under 5% CO2. The final volume was 200 μL. Following incubation, the cells were centrifuged, and the supernatants collected and stored at −70° C. prior to assaying for IL-2 production. A commercial ELISA kit (IL-2 Eli-pair, Diaclone Research, Besancon, France) was used to detect production of IL-2, from which dose response curves were obtained. The IC50 value was calculated as the concentration at which 50% of maximum IL-2 production after stimulation was inhibited versus a non-stimulation control.

T1 sequence (Q5M848 whole entry): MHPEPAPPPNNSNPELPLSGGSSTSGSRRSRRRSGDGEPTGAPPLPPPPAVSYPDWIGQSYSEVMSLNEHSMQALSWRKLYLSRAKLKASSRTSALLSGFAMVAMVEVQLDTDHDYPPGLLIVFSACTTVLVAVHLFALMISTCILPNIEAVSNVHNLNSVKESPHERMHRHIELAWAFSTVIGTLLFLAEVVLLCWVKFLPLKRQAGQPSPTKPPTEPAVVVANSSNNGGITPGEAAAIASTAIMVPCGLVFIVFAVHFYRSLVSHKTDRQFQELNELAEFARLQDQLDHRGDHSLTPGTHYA

Row | SMILES | inhibition at 0.1 µM [1] [%] | IC50 [2] [nM]
1 | Cc1cc(C)c(NC(=O)c2ccc(-c3cc(-c4nnn(C)n4)ccc3C)cc2)cn1 [Compound 3, N-(4,6-dimethylpyridin-3-yl)-2′-methyl-5′-(2-methyl-2H-tetrazol-5-yl)-[1,1′-biphenyl]-4-carboxamide] | 36 | 46
2 | Cn1cc(-c2ccc(Cl)c(-c3cnc(NC(=O)c4cccc(F)c4F)cn3)c2)cn1 [Compound 7, N-(5-(2-chloro-5-(1-methyl-1H-pyrazol-4-yl)phenyl)pyrazin-2-yl)-2,3-difluorobenzamide] | 98 | 10
3 | CCc1sc(-c2cnc(C)cn2)nc1-c1ccc(C(=O)Nc2cnc(C)cc2C)cc1 [Compound 5] | 40 | 32
4 | CCc1sc(-c2cc(C)on2)nc1-c1ccc(NC(=O)c2cncc(Cl)c2C)nc1 [Compound 9] | 73 | 10
5 | Cc1cc(C)c(NC(=O)c2ccc(-c3cc(-c4nnn(C)n4)ccc3Cl)cc2)cn1 [Compound 2, 2′-chloro-N-(4,6-dimethylpyridin-3-yl)-5′-(2-methyl-2H-tetrazol-5-yl)-[1,1′-biphenyl]-4-carboxamide] | 61 | 33
6 | Cc1ccc(-c2nc(-c3ccc(C(=O)Nc4c(F)cccc4F)cc3)c(C)s2)cn1 [Compound 1] | 80 | 27
7 | Cc1ccncc1C(=O)Nc1ccc(-c2cc(-c3nnn(C)n3)ccc2Cl)cn1 [Compound 4, N-(5-(2-chloro-5-(2-methyl-2H-tetrazol-5-yl)phenyl)pyridin-2-yl)-4-methylnicotinamide] | 36 | –
8 | CCc1sc(-c2cc(C)on2)nc1-c1ccc(C(=O)Nc2cncnc2C)cc1 [Compound 6] | 93 | 38
9 | Cn1cc(-c2ccc(Cl)c(-c3cnc(NC(=O)c4ccc(F)cc4F)cn3)c2)cn1 [Compound 8, N-(5-(2-chloro-5-(1-methyl-1H-pyrazol-4-yl)phenyl)pyrazin-2-yl)-2,4-difluorobenzamide] | 82 | 14
